The values below come from ChEMBL document CHEMBL1139950, “Derivatives of oxoisoaporphine alkaloids: a novel class of selective acetylcholinesterase inhibitors” (Bioorg Med Chem Lett, 2007).

Usually IC50 stands for the point on the concentration scale where inhibition reaches its midpoint. Read a high IC50 as lower potency.

Chain of Butyrylcholinesterase (Q9N1N9 whole entry): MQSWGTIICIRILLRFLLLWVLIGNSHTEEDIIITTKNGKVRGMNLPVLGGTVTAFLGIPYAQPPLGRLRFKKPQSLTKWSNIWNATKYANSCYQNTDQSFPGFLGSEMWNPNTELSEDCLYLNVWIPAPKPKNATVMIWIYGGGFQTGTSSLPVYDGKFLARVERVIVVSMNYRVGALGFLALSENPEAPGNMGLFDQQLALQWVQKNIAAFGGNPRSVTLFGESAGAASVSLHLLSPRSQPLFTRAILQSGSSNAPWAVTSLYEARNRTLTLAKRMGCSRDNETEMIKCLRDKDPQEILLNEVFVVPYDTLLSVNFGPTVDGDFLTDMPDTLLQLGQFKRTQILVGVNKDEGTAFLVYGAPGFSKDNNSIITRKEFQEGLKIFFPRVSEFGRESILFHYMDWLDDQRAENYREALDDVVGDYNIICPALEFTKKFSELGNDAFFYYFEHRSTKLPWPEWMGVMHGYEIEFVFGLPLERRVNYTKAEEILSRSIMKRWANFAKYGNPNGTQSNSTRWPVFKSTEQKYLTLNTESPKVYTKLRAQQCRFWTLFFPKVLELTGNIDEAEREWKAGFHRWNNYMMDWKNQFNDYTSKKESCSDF

One experiment concerns the target Butyrylcholinesterase (Equus caballus, UniProt Q9N1N9). Briefly: Inhibition of equine serum BuChE.
Consider `CN(C)CCC(=O)Nc1ccc2c(c1)C(=O)c1cccc3ccnc-2c13`, for which the IC50 amounted to 1950 nM.

`Nc1ccc2c(c1)C(=O)c1cccc3ccnc-2c13` came in with an IC50 of 100000 nM.

On to `C[N+]1(CCCC(=O)Nc2ccc3c(c2)C(=O)c2cccc4ccnc-3c24)CCCC1`, for which the IC50 is 3230 nM.

In the case of `O=C(CCN1CCCC1)Nc1ccc2c(c1)C(=O)c1cccc3ccnc-2c13`, the IC50 came out at 2410 nM.

The compound `O=C(CCCN1CCCC1)Nc1ccc2c(c1)C(=O)c1cccc3ccnc-2c13` had an IC50 of 3610 nM.

`C[N+](C)(C)CCC(=O)Nc1ccc2c(c1)C(=O)c1cccc3ccnc-2c13` gave an IC50 of 2820 nM.

`O=C(CCNCCO)Nc1ccc2c(c1)C(=O)c1cccc3ccnc-2c13` gave an IC50 of 5340 nM.

`CCN(CC)CCC(=O)Nc1ccc2c(c1)C(=O)c1cccc3ccnc-2c13` showed an IC50 of 6060 nM.

Consider `C[N+](C)(C)CC(=O)Nc1ccc2c(c1)C(=O)c1cccc3ccnc-2c13`, for which half-maximal inhibition (IC50) was put at 1310 nM.

On to `O=C(CN1CCCC1)Nc1ccc2c(c1)C(=O)c1cccc3ccnc-2c13`, for which the IC50 came to 3490 nM.

With `CN(C)CCCC(=O)Nc1ccc2c(c1)C(=O)c1cccc3ccnc-2c13`, the IC50 was determined as 4400 nM.

As to `C[N+]1(CCC(=O)Nc2ccc3c(c2)C(=O)c2cccc4ccnc-3c24)CCCC1`, the 50% inhibitory concentration (IC50) is 1960 nM.

`CN(C)CC(=O)Nc1ccc2c(c1)C(=O)c1cccc3ccnc-2c13` returned an IC50 of 4370 nM.

The compound `CN(C)CCNCCC(=O)Nc1ccc2c(c1)C(=O)c1cccc3ccnc-2c13` showed an IC50 of 5370 nM.

Consider `C[N+]1(CC(=O)Nc2ccc3c(c2)C(=O)c2cccc4ccnc-3c24)CCCC1`, for which half-maximal inhibition (IC50) required 1690 nM.

Compound `C[N+](C)(C)CCCC(=O)Nc1ccc2c(c1)C(=O)c1cccc3ccnc-2c13` displayed a half-inhibitory concentration (IC50) of 2370 nM.

In turn, `CC[N+](C)(CC)CCCC(=O)Nc1ccc2c(c1)C(=O)c1cccc3ccnc-2c13` registered an IC50 of 5190 nM.

System in the next experiment: not listed separately
Kind of experiment: Selectivity for electric eel AChE over equine serum BuChE.
Take `CN(C)CCC(=O)Nc1ccc2c(c1)C(=O)c1cccc3ccnc-2c13`: the Ratio IC50 turned out to be 58.

In the case of `C[N+]1(CCCC(=O)Nc2ccc3c(c2)C(=O)c2cccc4ccnc-3c24)CCCC1`, the Ratio IC50 was found to be 1290.

Take `O=C(CCN1CCCC1)Nc1ccc2c(c1)C(=O)c1cccc3ccnc-2c13`: the Ratio IC50 is 980.

For the compound `O=C(CCCN1CCCC1)Nc1ccc2c(c1)C(=O)c1cccc3ccnc-2c13`, the Ratio IC50 was determined as 300.

As to `C[N+](C)(C)CCC(=O)Nc1ccc2c(c1)C(=O)c1cccc3ccnc-2c13`, the Ratio IC50 is 590.

Consider `O=C(CCNCCO)Nc1ccc2c(c1)C(=O)c1cccc3ccnc-2c13`, for which the Ratio IC50 turned out to be 97.

Consider `CCN(CC)CCC(=O)Nc1ccc2c(c1)C(=O)c1cccc3ccnc-2c13`, for which the Ratio IC50 came to 523.

With `C[N+](C)(C)CC(=O)Nc1ccc2c(c1)C(=O)c1cccc3ccnc-2c13`, the Ratio IC50 was 88.

With `O=C(CN1CCCC1)Nc1ccc2c(c1)C(=O)c1cccc3ccnc-2c13`, the Ratio IC50 amounted to 560.

Regarding `CN(C)CCCC(=O)Nc1ccc2c(c1)C(=O)c1cccc3ccnc-2c13`, the Ratio IC50 is 144.

With `C[N+]1(CCC(=O)Nc2ccc3c(c2)C(=O)c2cccc4ccnc-3c24)CCCC1`, the Ratio IC50 worked out at 1850.

For `CN(C)CC(=O)Nc1ccc2c(c1)C(=O)c1cccc3ccnc-2c13`, the Ratio IC50 was 45.

For `CN(C)CCNCCC(=O)Nc1ccc2c(c1)C(=O)c1cccc3ccnc-2c13`, the Ratio IC50 came out at 45.

In the case of `C[N+]1(CC(=O)Nc2ccc3c(c2)C(=O)c2cccc4ccnc-3c24)CCCC1`, the Ratio IC50 is 1560.

Consider `C[N+](C)(C)CCCC(=O)Nc1ccc2c(c1)C(=O)c1cccc3ccnc-2c13`, for which the Ratio IC50 came to 490.

On to `CC[N+](C)(CC)CCCC(=O)Nc1ccc2c(c1)C(=O)c1cccc3ccnc-2c13`, for which the Ratio IC50 was determined as 1980.

For the next experiment, the target named is Acetylcholinesterase (Electrophorus electricus, UniProt O42275). Kind of experiment: Inhibition of electric eel AChE.
Chain of Acetylcholinesterase (O42275 whole entry): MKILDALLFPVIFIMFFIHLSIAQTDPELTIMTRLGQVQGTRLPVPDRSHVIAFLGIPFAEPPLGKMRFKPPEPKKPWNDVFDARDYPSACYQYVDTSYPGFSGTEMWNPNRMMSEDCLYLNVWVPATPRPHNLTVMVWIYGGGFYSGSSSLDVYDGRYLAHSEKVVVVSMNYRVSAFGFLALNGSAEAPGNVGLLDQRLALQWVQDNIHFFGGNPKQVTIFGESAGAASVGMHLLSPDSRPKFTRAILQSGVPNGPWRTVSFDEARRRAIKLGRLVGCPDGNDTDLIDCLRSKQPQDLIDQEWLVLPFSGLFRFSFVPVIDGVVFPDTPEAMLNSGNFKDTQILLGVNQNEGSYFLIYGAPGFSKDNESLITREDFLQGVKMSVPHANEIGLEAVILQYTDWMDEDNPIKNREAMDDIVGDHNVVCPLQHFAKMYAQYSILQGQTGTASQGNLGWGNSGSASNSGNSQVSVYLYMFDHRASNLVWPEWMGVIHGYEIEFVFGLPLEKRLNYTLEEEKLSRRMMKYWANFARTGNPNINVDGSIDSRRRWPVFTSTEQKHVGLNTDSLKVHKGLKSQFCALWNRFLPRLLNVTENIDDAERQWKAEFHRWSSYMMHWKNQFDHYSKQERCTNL
Turning to `CN(C)CCC(=O)Nc1ccc2c(c1)C(=O)c1cccc3ccnc-2c13`, it took 33.9 nM to reach half-maximal inhibition (IC50).

`Nc1ccc2c(c1)C(=O)c1cccc3ccnc-2c13` gave an IC50 of 26900 nM.

The compound `C[N+]1(CCCC(=O)Nc2ccc3c(c2)C(=O)c2cccc4ccnc-3c24)CCCC1` showed an IC50 of 2.51 nM.

Compound `O=C(CCN1CCCC1)Nc1ccc2c(c1)C(=O)c1cccc3ccnc-2c13` gave an IC50 of 2.47 nM.

`O=C(CCCN1CCCC1)Nc1ccc2c(c1)C(=O)c1cccc3ccnc-2c13` returned an IC50 of 12.1 nM.

Compound `C[N+](C)(C)CCC(=O)Nc1ccc2c(c1)C(=O)c1cccc3ccnc-2c13` registered a 50% inhibitory concentration (IC50) of 4.81 nM.

With `O=C(CCNCCO)Nc1ccc2c(c1)C(=O)c1cccc3ccnc-2c13`, the midpoint of inhibition, the IC50, lay at 55.1 nM.

Compound `CCN(CC)CCC(=O)Nc1ccc2c(c1)C(=O)c1cccc3ccnc-2c13` returned an IC50 of 11.6 nM.

For `C[N+](C)(C)CC(=O)Nc1ccc2c(c1)C(=O)c1cccc3ccnc-2c13`, half-maximal inhibition (IC50) was put at 14.9 nM.

In turn, `O=C(CN1CCCC1)Nc1ccc2c(c1)C(=O)c1cccc3ccnc-2c13` registered an IC50 of 6.18 nM.

Compound `CN(C)CCCC(=O)Nc1ccc2c(c1)C(=O)c1cccc3ccnc-2c13` displayed an IC50 of 30.5 nM.

For the compound `C[N+]1(CCC(=O)Nc2ccc3c(c2)C(=O)c2cccc4ccnc-3c24)CCCC1`, the IC50 came to 1.06 nM.

The compound `CN(C)CC(=O)Nc1ccc2c(c1)C(=O)c1cccc3ccnc-2c13` registered an IC50 of 96.5 nM.

For `CN(C)CCNCCC(=O)Nc1ccc2c(c1)C(=O)c1cccc3ccnc-2c13`, half-maximal inhibition (IC50) was put at 120 nM.

Take `C[N+]1(CC(=O)Nc2ccc3c(c2)C(=O)c2cccc4ccnc-3c24)CCCC1`: the IC50 was 1.08 nM.

As to `C[N+](C)(C)CCCC(=O)Nc1ccc2c(c1)C(=O)c1cccc3ccnc-2c13`, half-maximal inhibition (IC50) required 4.79 nM.

As to `CC[N+](C)(CC)CCCC(=O)Nc1ccc2c(c1)C(=O)c1cccc3ccnc-2c13`, the midpoint of inhibition, the IC50, lay at 2.62 nM.
